Drawing on US4062959A, “N-methyl-imidazole derivatives for treating mycotic infections” (Bayer Aktiengesellschaft, priority 1970, dated 1977), this text covers MIC for 3 molecules.

Converted amounts (≈) assume the structure as drawn.

What all share (experiment): Anti-mycotic action in vitro (MIC, serial dilution test)
Common to all, as to type: cell-based

One test has as its system Microsporon felineum. Particulars: 28° C, 24 to 96 hours; Sabouraud's test medium (Dermatophytes); dilution series 100-40-20-10-4-1; read-out: Minimal inhibitory concentration (MIC), Microsporon felineum. As to the method:
(§1) The Table summarises the anti-mycotic actions in vitro of several preparations towards several species of fungi:
(§2) The MIC determination was carried out in a serial dilution test, in the dilution series 100-40-20-10-4-1 γ/ml of substrate. The following were used as nutrient substrates:
(§3) a. for Dermatophytes: Sabouraud's test medium
(§4) The incubation temperature was 28° C, and the incubation time was 24 to 96 hours.

Test [1] relates to Trichophyton mentagrophytes. Particulars: 28° C, 24 to 96 hours, Sabouraud's test medium (Dermatophytes), dilution series 100-40-20-10-4-1, read-out: Minimal inhibitory concentration (MIC), Trichophyton mentagrophytes. As to the method: as §1, §2, §3, §4
Another test relates to Candida albicans. Particulars: 28° C, 24 to 96 hours, meat water-glucose-bouillon (yeasts), dilution series 100-40-20-10-4-1, read-out: Minimal inhibitory concentration (MIC), Candida albicans. On the procedure:
as §1, §2
b. for yeasts: meat water -- glucose -- bouillon.
as §4

The test system of a further test is Aspergillus niger. The following applies: 28° C, 24 to 96 hours, dilution series 100-40-20-10-4-1, read-out: Minimal inhibitory concentration (MIC), Aspergillus niger. As to the method: as §1, §2, §4
The test system of a further test is Penicillium commune. Particulars: 28° C, 24 to 96 hours, dilution series 100-40-20-10-4-1, read-out: Minimal inhibitory concentration (MIC), Penicillium commune. On the procedure: as §1, §2, §4

As for `c1ccc(C(c2ccccc2)(c2cncnc2)n2ccnc2)cc1` [Example 1, Diphenyl-pyrimid-5-yl-imidazol-1-yl-methane], the MIC is 40 µg/mL (≈ 128 µM) in the test on Microsporon felineum; 4 µg/mL (≈ 12.8 µM) in test [1]; 40 µg/mL (≈ 128 µM) in the test with Candida albicans; 10 µg/mL (≈ 32 µM) in the test on Aspergillus niger; 100 µg/mL (≈ 320 µM) in the test on Penicillium commune.

As for `c1ccc(C(c2ccccc2)(c2cnccn2)n2ccnc2)cc1` [Example 2, Diphenyl-pyrazyl-imidazol-1-yl-methane], the MIC in the test with Microsporon felineum worked out at 10 µg/mL (≈ 32 µM); in test [1] it was 4 µg/mL (≈ 12.8 µM); with Candida albicans, 40 µg/mL (≈ 128 µM); in the test with Aspergillus niger, 10 µg/mL (≈ 32 µM); in the test with Penicillium commune, 40 µg/mL (≈ 128 µM).

Regarding `Fc1ccc(C(c2ccccc2)(c2cnccn2)n2ccnc2)cc1` (stereo not drawn) [Example 3, 4-Fluorophenyl-phenyl-pyrazyl-imidazol-1-yl-methane], the MIC in the test on Microsporon felineum was 4 µg/mL (≈ 12.1 µM); in test [1], below 1 µg/mL; with Candida albicans it was 4 µg/mL (≈ 12.1 µM); in the test with Aspergillus niger it was 4 µg/mL (≈ 12.1 µM); in the test with Penicillium commune, 4 µg/mL (≈ 12.1 µM).
